From patent US10766872B2, “Compounds for the treatment of mycobacterial infections” (The Broad Institute, Inc., priority 2011, dated 2020)
Structures can show the parent of a compound that is named as a salt. Where two headings read alike, the source gives them in different places.

Test system: Mtb strain H37Rv
Assay: Antitubercular activity, OD600 based growth inhibition assay (IC90)
Type: cell-based, Mycobacterium tuberculosis
[1] = Mycobacterium tuberculosis, H37RV, 168 h, Mtb H37Rv, 7 days incubation, growth read by OD600, concentration giving 90% inhibition of growth of the control, read-out: IC90
[2] = Mtb H37Rv, 7 days incubation, growth read by OD600, concentration giving 90% inhibition of growth of the control, read-out: IC90

## Cc1cc2oc(=O)cc(-c3ccccc3)c2c(C)c1-c1ccc(CN2CCOCC2)cc1 [Compound 1, 5,7-Dimethyl-6-(4-(morpholinomethyl)phenyl)-4-phenyl-2H-chromen-2-one]
[1]
  IC90: 0.001 to 10 µM

## COc1ncc(-c2c(C)cc3oc(=O)cc(-c4ccccc4)c3c2C)cn1 [Compound 38]
[1]
  IC90: > 100 µM

## Cc1cc2oc(=O)cc(-c3ccccc3)c2c(C)c1-c1ccccc1Cl [Compound 27]
[1]
  IC90: 10 to 50 µM

## Cc1cc2oc(=O)cc(-c3ccccc3)c2c(C)c1-c1cccc(F)c1 [Compound 29]
[1]
  IC90: 10 to 50 µM

## Cc1cc2oc(=O)cc(-c3ccccc3)c2c(C)c1-c1ccc(Cl)cc1 [Compound 25]
[1]
  IC90: 50 to 100 µM

## Cc1cc2oc(=O)cc(-c3ccccc3)c2c(C)c1-c1ccc(CN2CCN(C)CC2)cc1 [Compound 5, 5,7-Dimethyl-6-(4-((4-methylpiperazin-1-yl)methyl)phenyl)-4-phenyl-2H-chromen-2-one]
[1]
  IC90: 0.001 to 10 µM

## COc1ncc(-c2c(C)cc3oc(=O)cc(-c4ccccc4)c3c2C)c(OC)n1 [Compound 39]
[1]
  IC90: 10 to 50 µM

## C=Cc1ccc(-c2c(C)cc3oc(=O)cc(-c4ccccc4)c3c2C)cc1 [Compound 23]
[1]
  IC90: > 100 µM

## CNC(=O)c1ccc(-c2c(C)cc3oc(=O)cc(-c4ccccc4)c3c2C)cc1 [Compound 34]
[1]
  IC90: 0.001 to 10 µM

## Cc1cc2oc(=O)cc(-c3ccccc3)c2c(C)c1-c1ccc(CS)cc1 [Compound 22]
[1]
  IC90: > 100 µM

## Cc1cc(CO)ccc1-c1c(C)cc2oc(=O)cc(-c3ccccc3)c2c1C [Compound 21]
[1]
  IC90: 10 to 50 µM

## Cc1cc2oc(=O)cc(-c3ccccc3)c2c(C)c1-c1ccc(CN2CCCCC2)cc1 [Compound 2, 5,7-Dimethyl-4-phenyl-6-(4-(piperidine-1-ylmethyl)phenyl)-2H-chromen-2-one]
[1]
  IC90: 10 to 50 µM

## CCOC(=O)Nc1cccc(-c2cc(=O)oc3cc(C)c(-c4ccc(CN5CCOCC5)cc4)c(C)c23)c1 [Compound 43]
[2]
  IC90: > 100 µM

## CC(=O)c1ccc(-c2c(C)cc3oc(=O)cc(-c4ccccc4)c3c2C)cc1 [Compound 32]
[1]
  IC90: > 100 µM

## Cc1cc2oc(=O)cc(-c3ccccc3)c2c(C)c1-c1ccc(C(F)(F)F)cc1 [Compound 30]
[1]
  IC90: 10 to 50 µM

## COc1ccc(-c2cc(=O)oc3cc(C)c(-c4ccc(CN5CCOCC5)cc4)c(C)c23)cc1 [Compound 44]
[1]
  IC90: > 100 µM

## Cc1cc2oc(=O)cc(-c3ccc(N)cc3)c2c(C)c1-c1ccc(CN2CCOCC2)cc1 [Compound 7, 4-(4-Aminophenyl)-5,7-dimethyl-6-(4-(morpholinomethyl)phenyl)-2H-chromen-2-one]
[1]
  IC90: 10 to 50 µM

## Cc1cc2oc(=O)cc(-c3ccccc3)c2c(C)c1-c1cccc(Cl)c1 [Compound 26]
[1]
  IC90: > 100 µM

## Cc1cc2oc(=O)cc(-c3cccc([N+](=O)[O-])c3)c2c(C)c1-c1ccc(CN2CCOCC2)cc1 [Compound 8, 5,7-Dimethyl-6-(4-(morpholinomethyl)phenyl)-4-(3-nitrophenyl)-2H-chromen-2-one]
[1]
  IC90: 0.001 to 10 µM

## Cc1cc2oc(=O)cc(-c3cccnc3)c2c(C)c1-c1ccc(CN2CCOCC2)cc1 [Compound 13, 5,7-Dimethyl-6-(4-(morpholinomethyl)phenyl)-4-(pyridin-3-yl)-2H-chromen-2-one]
[1]
  IC90: 0.001 to 10 µM

## COc1ccc(-c2c(C)cc3oc(=O)cc(-c4ccccc4)c3c2C)cc1 [Compound 16]
[1]
  IC90: > 100 µM

## Cc1cc2oc(=O)cc(-c3ccccc3)c2c(C)c1-c1cncnc1 [Compound 41]
[1]
  IC90: 0.001 to 10 µM

## COC(=O)c1cccc(-c2cc(=O)oc3cc(C)c(-c4ccc(CN5CCOCC5)cc4)c(C)c23)c1 [Compound 9, Methyl 3-(5,7-dimethyl-6-(4-(morpholinomethyl)phenyl)-2-oxo-2H-chromen-4-yl)benzoate]
[1]
  IC90: 50 to 100 µM

## Cc1ccc(-c2c(C)cc3oc(=O)cc(-c4ccccc4)c3c2C)cc1 [Compound 15]
[1]
  IC90: 10 to 50 µM

## Cc1cc2oc(=O)cc(-c3ccccc3)c2c(C)c1-c1ccc(F)cc1 [Compound 28]
[1]
  IC90: 10 to 50 µM

## Cc1cc2oc(=O)cc(-c3cccc(N)c3)c2c(C)c1-c1ccc(CN2CCOCC2)cc1 [Compound 6, 4-(3-Aminophenyl)-5,7-dimethyl-6-(4-(morpholinomethyl)phenyl)-2H-chromen-2-one hydrochloride]
Mycobacterium tuberculosis, H37RV, 168 h
  IC90: 0.001 to 10 µM

## Cc1cc2oc(=O)cc(-c3ccccc3)c2c(C)c1-c1cccnc1 [Compound 37]
[1]
  IC90: 50 to 100 µM

## Cc1cc2oc(=O)cc(-c3ccccc3)c2c(C)c1-c1cccc(C(F)(F)F)c1 [Compound 31]
[1]
  IC90: > 100 µM

## Cc1cc2oc(=O)cc(-c3ccccc3)c2c(C)c1-c1ccc(O)cc1 [Compound 19]
[1]
  IC90: > 100 µM

## O=c1cc(-c2ccccc2)c2cc(-c3ccc(CO)cc3)ccc2o1 [Compound 47]
[1]
  IC90: > 100 µM

## Cc1cc2oc(=O)cc(-c3ccccc3)c2c(C)c1-c1ccc(C#N)cc1 [Compound 14]
[1]
  IC90: > 100 µM

## CC(=O)Nc1cccc(-c2cc(=O)oc3cc(C)c(-c4ccc(CN5CCOCC5)cc4)c(C)c23)c1 [Compound 10, N-(3-(5,7-dimethyl-6-(4-(morpholinomethyl)phenyl)-2-oxo-2H-chromen-4-yl)phenyl)acetamide]
[1]
  IC90: 10 to 50 µM

## Cc1cc2oc(=O)cc(-c3ccccc3)c2cc1-c1ccc(CO)cc1 [Compound 48]
[1]
  IC90: 50 to 100 µM

## Cc1cc2oc(=O)cc(-c3ccccc3)c2c(C)c1-c1ccncc1 [Compound 35]
[1]
  IC90: 0.001 to 10 µM

## Cc1ccc(-c2ccc3oc(=O)cc(-c4ccccc4)c3c2)cc1 [Compound 45]
[1]
  IC90: > 100 µM

## Cc1cnccc1-c1c(C)cc2oc(=O)cc(-c3ccccc3)c2c1C [Compound 36]
[1]
  IC90: 10 to 50 µM

## Cc1c(-c2ccc(CO)cc2)ccc2oc(=O)cc(-c3ccccc3)c12 [Compound 49]
[1]
  IC90: 50 to 100 µM

## Cc1cc2oc(=O)cc(-c3cccc(NS(C)(=O)=O)c3)c2c(C)c1-c1ccc(CN2CCOCC2)cc1 [Compound 11, N-(3-(5,7-dimethyl-6-(4-(morpholinomethyl)phenyl)-2-oxo-2H-chromen-4-yl)phenyl)methanesulfonamide]
[1]
  IC90: 50 to 100 µM

## Cc1cc2oc(=O)cc(-c3ccccc3)c2c(C)c1-c1cnc(C)c2ccccc12 [Compound 40]
[1]
  IC90: > 100 µM

## CCc1ccc(-c2c(C)cc3oc(=O)cc(-c4ccccc4)c3c2C)cc1 [Compound 24]
[1]
  IC90: > 100 µM

## Cc1cc2oc(=O)cc(-c3ccccc3)c2c(C)c1-c1ccc(CO)cc1 [Compound 50]
[2]
  IC90: > 100 µM

## Cc1cc2oc(=O)cc(-c3ccccc3)c2c(C)c1-c1ccc(C(C)O)cc1 (stereo not shown) [Compound 33]
[1]
  IC90: 0.001 to 10 µM

## COc1cccc(-c2c(C)cc3oc(=O)cc(-c4ccccc4)c3c2C)c1 [Compound 18]
[1]
  IC90: 10 to 50 µM

## Cc1cc2oc(=O)cc(-c3ccccc3)c2c(C)c1-c1ccc(CNC2CCCCC2)cc1 [Compound 3, 6-(4-((Cyclohexylamino)methyl)phenyl)-5,7-dimethyl-4-phenyl-2H-chromen-2-one]
[1]
  IC90: 0.001 to 10 µM

## Cc1ccc(/C=C/c2c(C)cc3oc(=O)cc(-c4ccccc4)c3c2C)cc1 [Compound 42]
[1]
  IC90: 50 to 100 µM

## CCOC(=O)Nc1cccc(-c2cc(=O)oc3cc(C)c(-c4ccc(CN5CCOCC5)cc4)c(C)c23)c1 [Compound 12, Ethyl (3-(5,7-dimethyl-6-(4-(morpholinomethyl)phenyl)-2-oxo-2H-chromen-4-yl)phenyl)carbamate]
[2]
  IC90: 10 to 50 µM

## CCCCCCNCc1ccc(-c2c(C)cc3oc(=O)cc(-c4ccccc4)c3c2C)cc1 [Compound 4, 6-(4-((Hexylamino)methyl)phenyl)-5,7-dimethyl-4-phenyl-2H-chromen-2-one]
[1]
  IC90: 0.001 to 10 µM

## Cc1cc2oc(=O)cc(-c3ccccc3)c2c(C)c1-c1ccc(CO)cc1 [Compound 20]
[2]
  IC90: 0.001 to 10 µM

## COc1ccccc1-c1c(C)cc2oc(=O)cc(-c3ccccc3)c2c1C [Compound 17]
[1]
  IC90: > 100 µM
